Results on 20 compounds are retold here after patent US12612368B2 (Remedy Plan, Inc., priority 2019, dated 2026).

Test [1] has as its system MV-4-11 cells. Briefly: Cell viability in MV-4-11 cells (CellTiter Glo2). The test is classed as cell-based. To be noted: Homo sapiens, MV4-11, 96 h, 8-point dose response, 4 days, CellTiter Glo2 (Table E2), read-out: MV-4-11 Cell Viability, MV-4-11 IC50. On the technique in general: ATP-based viability assays read luminescence as a measure of living cells.
Protocol: Approximately 10,000 MV-4-11 cells per well of a 96-well plate were treated with DMSO (no drug control) or each compound in Tables E1 and E2 in an 8-point dose response for 4 days, Cell viability was measured using CellTiter Glo2. The ICse of each compound was determined using CDD Vault.
In test [2] the target is T1, NAMPT (Homo sapiens, UniProt P43490).
T1 construct: purchased Abcam ab221819
T1 sequence (P43490 whole entry): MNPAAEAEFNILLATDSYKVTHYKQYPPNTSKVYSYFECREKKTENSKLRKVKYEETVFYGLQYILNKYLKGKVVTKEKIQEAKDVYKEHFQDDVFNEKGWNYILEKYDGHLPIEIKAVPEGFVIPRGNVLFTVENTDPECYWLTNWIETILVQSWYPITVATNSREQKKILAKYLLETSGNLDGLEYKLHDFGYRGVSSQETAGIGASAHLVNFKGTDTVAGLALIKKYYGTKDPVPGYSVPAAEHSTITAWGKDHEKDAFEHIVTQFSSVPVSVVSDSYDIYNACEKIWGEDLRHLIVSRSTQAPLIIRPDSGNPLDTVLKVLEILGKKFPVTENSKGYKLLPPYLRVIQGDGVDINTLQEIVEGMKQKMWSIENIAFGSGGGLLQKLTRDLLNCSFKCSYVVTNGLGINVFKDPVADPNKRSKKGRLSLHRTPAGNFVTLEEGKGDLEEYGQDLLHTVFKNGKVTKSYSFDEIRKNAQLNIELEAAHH
In words: NAMPT Activity Assay (Abcam #ab221819). The test is classed as biochemical. The conditions noted are these: purified NAMPT, two-step reaction, OD450 nm; percent inhibition vs no drug; compound concentration not stated.

A word on the IC50: it is the concentration at which inhibition is half-maximal. Turning to `CC(=O)Nc1ccc(-c2ccc(C(=O)N(C)Cc3cccnc3C)cn2)cc1C#N` [Compound I-483, 6-(4-Acetamido-3-cyano-phenyl)-N-methyl-N-[(2-methyl-3-pyridyl)methyl]pyridine-3-carboxamide], in test [1], the IC50 was above 30000 nM. Further, in test [2], the “NAMPT Inhibition Code” value was “A (A = <33% inhibition)”.
`CC(=O)N(CCC#N)c1ccc(-c2ccc(C(=O)NCc3cccnc3)cn2)cc1` [Compound I-484, 6-[4-[acetyl(2-cyanoethyl)amino]phenyl]-N-(3-pyridylmethyl)pyridine-3-carboxamide]: in test [1], the half-inhibitory concentration (IC50) was determined as 2660 nM. Also, the “NAMPT Inhibition Code” value in test [2] was “A (A = <33% inhibition)”.
The matching figures for `CC(=O)N(CC1CC(F)(F)C1)c1ccc(-c2ccc(C(=O)NCc3cccnc3C)cn2)cc1C` [Compound I-485, 6-[4-[Acetyl-[(3,3-difluorocyclobutyl)methyl]amino]-3-methyl-phenyl]-N-[(2-methyl-3-pyridyl)methyl]pyridine-3-carboxamide]: 1340 nM and “A (A = <33% inhibition)”.
With `CCOC(=O)NCCN(C(C)=O)c1ccc(-c2ccc(C(=O)NCc3cccnc3C)cn2)cc1C` [Compound I-486, Ethyl N-[2-[N-acetyl-2-methyl-4-[5-[(2-methyl-3-pyridyl)methylcarbamoyl]-2-pyridyl]anilino]ethyl]carbamate], the half-maximal inhibitory concentration (IC50) in test [1] came to 2700 nM. Moreover, the “NAMPT Inhibition Code” value in test [2] is recorded as “A (A = <33% inhibition)”.
For the compound `COC(=O)NCCN(C(C)=O)c1ccc(-c2ccc(C(=O)NCc3cccnc3C)cn2)cc1C` [Compound I-487, Methyl N-[2-[N-acetyl-2-methyl-4-[5-[(2-methyl-3-pyridyl)methylcarbamoyl]-2-pyridyl]anilino]ethyl]carbamate], in test [1], the 50% inhibitory concentration (IC50) came to 4350 nM. Moreover, the “NAMPT Inhibition Code” value in test [2] is recorded as “A (A = <33% inhibition)”.
The like results for `CC(=O)N(CC1CC1)c1ccc(-c2ccc(C(=O)NCc3cccnc3C)cn2)cc1C` [Compound I-488, 6-[4-[Acetyl(cyclopropylmethyl)amino]-3-methyl-phenyl]-N-[(2-methyl-3-pyridyl)methyl]pyridine-3-carboxamide] were, in that order, 2820 nM and “A (A = <33% inhibition)”.
The matching figures for `CC(=O)N(CC1CC1)c1ccc(-c2ccc(C(=O)NCc3ccc(C)nc3C)cn2)cc1C` [Compound I-489, 6-[4-[Acetyl(cyclopropylmethyl)amino]-3-methyl-phenyl]-N-[(2,6-dimethyl-3-pyridyl)methyl]pyridine-3-carboxamide]: 2220 nM and “A (A = <33% inhibition)”.
With `CCOC(=O)NCCC(=O)N(C)c1ccc(-c2ccc(C(=O)NCc3cccnc3C)cn2)cc1C` [Compound I-491, Ethyl N-[3-[N,2-dimethyl-4-[5-[(2-methyl-3-pyridyl)methylcarbamoyl]-2-pyridyl]anilino]-3-oxo-propyl]carbamate], the IC50 in test [1] was 1830 nM. In test [2], the “NAMPT Inhibition Code” value is reported as “A (A = <33% inhibition)”.
For the compound `Cc1cc(-c2ccc(C(=O)NCc3cccnc3C)cn2)ccc1N(C)C(=O)CC#N` [Compound I-492, 6-[4-[(2-cyanoacetyl)-methyl-amino]-3-methyl-phenyl]-N-[(2-methyl-3-pyridyl)methyl]pyridine-3-carboxamide], in test [1], the IC50 stood at 6770 nM. For the same compound, in test [2], the “NAMPT Inhibition Code” value was “A (A = <33% inhibition)”.
As to `CC(=O)N(c1ccc(-c2ccc(C(=O)NCc3cccnc3)cn2)cc1C)C(C)C` [Compound I-495, 6-[4-[Acetyl(isopropyl)amino]-3-methyl-phenyl]-N-(3-pyridylmethyl)pyridine-3-carboxamide], the IC50 in test [1] was 10.7 nM. Further, in test [2], the “NAMPT Inhibition Code” value was “C (C = ≥66% inhibition)”.
Turning to `CCC(=O)N(C)c1ccc(-c2ccc(C(=O)N(C)Cc3cccnc3)cn2)cc1C` [Compound I-496, N-methyl-6-[3-methyl-4-[methyl(propanoyl)amino]phenyl]-N-(3-pyridylmethyl)pyridine-3-carboxamide], in test [1], the IC50 was above 15800 nM. The “NAMPT Inhibition Code” value in test [2] is “A (A = <33% inhibition)”.
Consider `CC(=O)CC(=O)N(c1ccc(-c2ccc(C(=O)NCc3cccnc3C)cn2)cc1C)C(C)C` [Compound I-497, 6-(4-(N-isopropyl-3-oxobutanamido)-3-methylphenyl)-N-((2-methylpyridin-3-yl)methyl)nicotinamide], for which the IC50 in test [1] worked out at 5720 nM. In addition, the “NAMPT Inhibition Code” value in test [2] is on record as “A (A = <33% inhibition)”.
The matching figures for `CC(=O)N(CCC(F)(F)F)c1ccc(-c2ccc(C(=O)NCc3cccnc3C)cn2)cc1` [Compound I-499, 6-[4-[Acetyl(3,3,3-trifluoropropyl)amino]phenyl]-N-[(2-methyl-3-pyridyl)methyl]pyridine-3-carboxamide]: 3990 nM and “A (A = <33% inhibition)”.
Consider `CC(=O)N(CC1CC1)c1ccc(-c2ccc(C(=O)NCc3cccnc3C)cn2)cc1` [Compound I-500, 6-[4-[Acetyl(cyclopropylmethyl)amino]phenyl]-N-[(2-methyl-3-pyridyl)methyl]pyridine-3-carboxamide], for which the IC50 in test [1] was 2280 nM. Further, the “NAMPT Inhibition Code” value in test [2] is “A (A = <33% inhibition)”.
The matching figures for `COC(=O)NCCC(=O)N(C)c1ccc(-c2ccc(C(=O)NCc3cccnc3C)cn2)cc1C` [Compound I-501, Methyl N-[3-[N,2-dimethyl-4-[5-[(2-methyl-3-pyridyl)methylcarbamoyl]-2-pyridyl]anilino]-3-oxo-propyl]carbamate]: 1830 nM and “A (A = <33% inhibition)”.
Turning to `CCC(=O)N(CCN)c1ccc(-c2ccc(C(=O)NCc3cccnc3)cn2)cc1C` [Compound I-502, 6-[4-[2-aminoethyl(propanoyl)amino]-3-methyl-phenyl]-N-(3-pyridylmethyl)pyridine-3-carboxamide], the IC50 in test [1] worked out at 224 nM. For the same compound, the “NAMPT Inhibition Code” value in test [2] is “A (A = <33% inhibition)”.
The matching figures for `CC(=O)N(CC1COC1)c1ccc(-c2ccc(C(=O)NCc3cccnc3C)cn2)cc1C` [Compound I-510, 6-[4-[Acetyl(oxetan-3-ylmethyl)amino]-3-methyl-phenyl]-N-[(2-methyl-3-pyridyl)methyl]pyridine-3-carboxamide]: 5910 nM and “A (A = <33% inhibition)”.
In the case of `CCC(=O)N(C)c1ccc(-c2ccc(C(=O)NCc3cccnc3C(F)(F)F)cn2)cc1C` [Compound I-511, 6-[3-Methyl-4-[methyl(propanoyl)amino]phenyl]-N-[[2-(trifluoromethyl)-3-pyridyl]methyl]pyridine-3-carboxamide], in test [1], the concentration for half-maximal inhibition (IC50) came to 7070 nM. Moreover, the “NAMPT Inhibition Code” value in test [2] was “A (A = <33% inhibition)”.
On to `CC(=O)N(c1ccc(-c2ccc(C(=O)NCc3cccnc3C)cn2)cc1C)C(C)C` [Compound I-512, 6-[4-[Acetyl(isopropyl)amino]-3-methyl-phenyl]-N-[(2-methyl-3-pyridyl)methyl]pyridine-3-carboxamide], for which the IC50 in test [1] was determined as 4380 nM. In addition, in test [2], the “NAMPT Inhibition Code” value was “A (A = <33% inhibition)”.
The like results for `CC(=O)N(CC1CC(F)(F)C1)c1ccc(-c2ccc(C(=O)NCc3cccnc3C)cn2)cc1` [Compound I-517, 6-[4-[Acetyl-[(3,3-difluorocyclobutyl)methyl]amino]phenyl]-N-[(2-methyl-3-pyridyl)methyl]pyridine-3-carboxamide] were, in that order, 2440 nM and “A (A = <33% inhibition)”.
